Data as given in patent publication US12459914B2, “Compounds and compositions for the treatment of tumors” (FONDAZIONE ISTITUTO ITALIANO DI TECNOLOGIA, priority 2019, dated 2025).

How the values were obtained:
BRC4/RAD51 interaction = target: T1, BRC4/RAD51 interaction (Homo sapiens, UniProt Q06609); assay: Competitive ELISA assay, disruption of BRC4/RAD51 interaction; assay type: binding; details: human Rad51, biotinylated BRC4 peptide
T1 construct: purchased Creative Biomart (Rad51); Life Technologies (BRC4 peptide)
T1 sequence (Q06609 1-339): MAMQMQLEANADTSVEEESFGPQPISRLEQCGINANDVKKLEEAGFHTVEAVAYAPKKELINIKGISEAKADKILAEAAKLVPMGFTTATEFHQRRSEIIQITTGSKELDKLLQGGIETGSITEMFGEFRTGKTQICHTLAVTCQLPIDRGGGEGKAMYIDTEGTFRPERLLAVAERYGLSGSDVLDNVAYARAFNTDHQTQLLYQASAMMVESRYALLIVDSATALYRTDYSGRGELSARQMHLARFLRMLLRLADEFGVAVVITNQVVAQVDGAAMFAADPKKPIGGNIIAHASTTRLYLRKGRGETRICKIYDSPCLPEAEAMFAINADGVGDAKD
Protocol: A competitive ELISA screening assay using biotinylated BRC4 peptide to disrupt the BRC4/RAD51 interaction was performed by modifying the method described by Rajendra et al. (Nucleic Acids Res. 38 (2010) 82-96). BRC4-biotinylated peptide (N-term Biotin[…] from Life Technologies) was used to coat 384-well plates (Nunc). After washing with PBS containing 0.05% Tween-20 (PBST), and blocking with the solution BSA 1%/PBST, overnight hybridization with human Rad51 protein (NP_002866 Creative Biomart, NY) was performed. Test compounds were added in dose-response from […] in triplicate with constant DMSO 1%. Antibody raised against Rad51 (Millipore) and HRP-secondary antibody staining to develop the 3,30,5,50-tetramethyllbenzidine signal (Sigma) quenched with 1M HCl was used as the assay readout. Colorimetric measure was read on Victor5 (PerkinElmer) plate Reader. BRC4 and Rad51 were included in the assay as positive control. Results were analyzed using GraphPad Software.

BxPC-3 cells [1] = assay: Cell viability assay (CellTiter Glo); assay type: cell-based; details: Homo sapiens, 72 h
Protocol: (§1) BxPC-3 cells were grown in RPMI 1640 containing 10% FBS, 100 U/ml penicillin/streptomycin, 2 mM glutamine. All media and supplements were from Sigma-Aldrich. Cultures were routinely tested for Mycoplasma contamination. Treatments (Olaparib and BRCA2-Rad51 disruptors) were administered in culture medium supplemented with 0.6% DMSO. The same amount of DMSO was added to the control, untreated cultures.
(§2) Cell viability was assessed by CellTiter Glo, Luminescent Cell Viability Assay. Briefly, BxPC-3 cells (1×10^4/well) were plated in white 96-well plates with clear bottom and treated for 72 h with olaparib (10 μM) or with the BRCA2-Rad51 disruptors, given alone or in combination. After treatments, the plate was allowed to equilibrate at room temperature for 30 min and the CellTiter-Glo reactive was directly added to each well. The plate was kept on a shaker for 2 min to induce cell lysis and its luminescence was measured by using a Fluoroskan Ascent FL reader (Labsystems) using manufacturer's instructions.

[2] = system: Homologous recombination (HR) in BxPC3 cells; assay: Homologous recombination assay (HR); assay type: cell-based; details: Homo sapiens; for inhibition at 20 µM: BXPC-3, at 20 μM
Protocol: Homologous recombination (HR) was assessed by using a commercially available assay (Norgen). This assay is based on cell co-transfection with two plasmids that, upon cells entering, recombinate. The efficiency of HR can be assessed by real time PCR, using primer mixtures included in the assay kit. Different primer mixtures allow differentiation between the original plasmid backbones and their recombination product.
BxPC3 cells (2×10^3 per well) were seeded in a 24-well plate and allowed to adhere overnight. Co-transfection with the two plasmids was performed in Lipofectamine 2000 (Invitrogen) for 5 h, according to the manufacturer's instructions. During transfection cells were exposed at different doses of BRCA2-Rad51 disruptors, dissolved in RPMI without serum in the presence of 0.6% DMSO.
After washing with PBS, cells were harvested, and DNA was isolated using QIAamp® DNA Mini Kit (Qiagen). Sample concentration was measured using an ONDA Nano Genius photometer.
The thermal cycler (CFX96 ™ Real Time System, BioRad) was programmed as follows: initial denaturation 95° C. for 3 min then 95° C. for 15 sec., 61° C. for 30 sec., 72° C. for 1 min and repeated for 40 cycles. Melt curve analysis was done. Samples were run in triplicate, in 10 μl reaction volume containing 25 ng of template.
In each DNA sample from control and treated cultures, the ΔCt between the recombination product and the backbone plasmids was calculated. HR efficiency was evaluated from the 2^−ΔΔ^Ct value obtained by comparing treated vs control samples.

BxPC-3 cells [3] = assay: Association with olaparib (given alone or in combination), cell viability / cytotoxicity; assay type: cell-based; details: olaparib 10 μM, 72 h
Protocol: as §1, §2
Cell death was assessed by applying the CellTox™ Green Cytotoxicity assay (Promega). Briefly, BxPC-3 (1×10^4/well) were plated in black 96-well plates with clear bottom and treated for 72 h with olaparib (10 μM) or with the BRCA2-Rad51 disruptors, given alone or in combination. At the end of treatment, the CellTox™ dye was added to cell cultures and the green fluorescence signal, which is produced by the binding interaction with dead cell DNA, was measured following the manufacturer's instructions. The fluorescence signal was detected using the EnSpire 2300 Multilabel Reader (Perkin Elmer); for each sample, the obtained signal was normalized on the number of viable cells, detected by the CellTiterGlo reagent.

Structure (SMILES) | EC50 (BRC4/RAD51 interaction) [µM] | EC50 (BxPC-3 cells [1]) [µM] | inhibition at 5 µM ([2]; BXPC-3, at 5 μM) [%] | Olaparib Assoc. (BxPC-3 cells [3]) | inhibition at 20 µM [2] [%] | inhibition at 40 µM ([2]; BXPC-3, at 40 μM) [%]
CCCn1ncc2cc(C3CC(c4c(-c5ccccc5)c5cc(Cl)ccc5[nH]c4=O)=NN3C(C)=O)ccc21 (stereo not drawn) [d.34, 3-[2-acetyl-3-(1-propylindazol-5-yl)-3,4-dihydropyrazol-5-yl]-6-chloro-4-phenyl-1H-quinolin-2-one] | 0.95 | 11 | 83 |  |  | 
Cn1ccc2cc(C3CC(c4c(-c5ccccc5)c5cc(Cl)ccc5[nH]c4=O)=NN3C(=O)CCC(=O)O)ccc21 (stereo not drawn) [d.22, 4-[5-(6-chloro-2-oxo-4-phenyl-1H-quinolin-3-yl)-3-(1-methylindol-5-yl)-3,4-dihydropyrazol-2-yl]-4-oxo-butanoic acid] | 2 | > 20 |  | synergy |  | 
COc1ccc(C2CC(c3c(Cc4ccccc4)c4cc(Cl)ccc4[nH]c3=O)=NN2C(=O)CCC(=O)O)cc1F (stereo not drawn) [d.66, 4-[5-(4-benzyl-6-chloro-2-oxo-1H-quinolin-3-yl)-3-(3-fluoro-4-methoxy-phenyl)-3,4-dihydropyrazol-2-yl]-4-oxo-butanoic acid] | 25 | 79.2 |  |  | 6.15 | 
O=C(O)CCC(=O)N1N=C(c2c(Cc3ccccc3)c3cc(Cl)ccc3[nH]c2=O)CC1c1ccc(-c2ccc(Cl)cc2)cc1 (stereo not drawn) [d.84, 4-[5-(4-benzyl-6-chloro-2-oxo-1H-quinolin-3-yl)-3-[4-(4-chlorophenyl)phenyl]-3,4-dihydropyrazol-2-yl]-4-oxo-butanoic acid] | 90 | 28.4 |  |  | 21.7 | 
COc1ccc(C2CC(c3c(-c4ccccc4)c4cc(Cl)ccc4[nH]c3=O)=NN2C(=O)CCC(=O)O)cc1 (stereo not drawn) [d.11, 4-[5-(6-chloro-2-oxo-4-phenyl-1H-quinolin-3-yl)-3-(4-methoxyphenyl)-3,4-dihydropyrazol-2-yl]-4-oxo-butanoic acid] | > 100 | > 50 |  |  |  | 
CCn1cc2cc(-c3ccc(C4CC(c5c(-c6ccccc6)c6cc(Cl)ccc6[nH]c5=O)=NN4C(=O)CCC(=O)O)cc3)ccc2n1 (stereo not drawn) [d.46, 4-[5-(6-chloro-2-oxo-4-phenyl-1H-quinolin-3-yl)-3-[4-(2-ethylindazol-5-yl)phenyl]-3,4-dihydropyrazol-2-yl]-4-oxo-butanoic acid] | 17 | 44 |  | synergy |  | 91.7
CC(=O)N1N=C(c2c(-c3ccccc3)c3cc(Cl)ccc3[nH]c2=O)CC1c1ccco1 (stereo not drawn) [d.21, 3-[2-acetyl-3-(2-furyl)-3,4-dihydropyrazol-5-yl]-6-chloro-4-phenyl-1H-quinolin-2-one] | > 100 | 23 |  |  |  | 
CC(=O)N1N=C(c2c(-c3ccccc3)c3cc(Cl)ccc3[nH]c2=O)CC1c1ccncc1 (stereo not drawn) [d.97, 3-(1-acetyl-5-(pyridin-4-yl)-4,5-dihydro-1H-pyrazol-3-yl)-6-chloro-4-phenylquinolin-2 (1H)-one] | 60 | 24.3 |  |  |  | 
CC(=O)N1N=C(c2c(Cc3ccccc3)c3cc(Cl)ccc3[nH]c2=O)CC1c1ccc(F)cc1 (stereo not drawn) [d.51, 3-[2-acetyl-3-(4-fluorophenyl)-3,4-dihydropyrazol-5-yl]-4-benzyl-6-chloro-1H-quinolin-2-one] | 13 | 15.2 |  |  |  | 
O=C(O)CCC(=O)N1N=C(c2c(-c3ccccc3)c3cc(Cl)ccc3[nH]c2=O)CC1c1ccc(-c2ccc(Cl)cc2)cc1 (stereo not drawn) [d.37, 4-[5-(6-chloro-2-oxo-4-phenyl-1H-quinolin-3-yl)-3-[4-(4-chlorophenyl)phenyl]-3,4-dihydropyrazol-2-yl]-4-oxo-butanoic acid] | 25 | 41.5 |  |  |  | 
O=C(O)CCC(=O)N1N=C(c2c(-c3ccccc3)c3cc(Cl)ccc3[nH]c2=O)CC1c1ccco1 (stereo not drawn) [d.20, 4-[5-(6-chloro-2-oxo-4-phenyl-1H-quinolin-3-yl)-3-(2-furyl)-3,4-dihydropyrazol-2-yl]-4-oxo-butanoic acid] | > 100 | > 100 |  |  |  | 
NCCC(=O)N1N=C(c2c(-c3ccccc3)c3cc(Cl)ccc3[nH]c2=O)CC1c1ccc(F)cc1 (stereo not drawn) [d.4, 3-[2-(3-aminopropanoyl)-3-(4-fluorophenyl)-3,4-dihydropyrazol-5-yl]-6-chloro-4-phenyl-1H-quinolin-2-one] | > 100 | 7.6 |  |  |  | 
COc1ccc(-c2c(C3=NN(C(=O)CCC(=O)O)C(c4ccc(F)cc4)C3)c(=O)[nH]c3ccc(Cl)cc23)cc1 (stereo not drawn) [d.19, 4-[5-[6-chloro-4-(4-methoxyphenyl)-2-oxo-1H-quinolin-3-yl]-3-(4-fluorophenyl)-3,4-dihydropyrazol-2-yl]-4-oxo-butanoic acid] | > 100 | 76 |  |  |  | 
O=C(O)CCC(=O)N1N=C(c2c(-c3ccccc3)c3cc(Cl)ccc3[nH]c2=O)CC1c1ccc(-c2ccc(F)cc2)cc1 (stereo not drawn) [d.36, 4-[5-(6-chloro-2-oxo-4-phenyl-1H-quinolin-3-yl)-3-[4-(4-fluorophenyl)phenyl]-3,4-dihydropyrazol-2-yl]-4-oxo-butanoic acid] | 13 | 31 |  |  |  | 
CC(=O)N1N=C(c2c(-c3ccccc3)c3cc(Cl)ccc3[nH]c2=O)CC1c1ccc(-c2ccc(Cl)cc2)cc1 (stereo not drawn) [d.38, 3-[2-acetyl-3-[4-(4-chlorophenyl)phenyl]-3,4-dihydropyrazol-5-yl]-6-chloro-4-phenyl-1H-quinolin-2-one] | 45 | 18.8 |  |  |  | 
O=C(O)CCC(=O)N1N=C(c2c(-c3ccccc3)c3cc(Cl)ccc3[nH]c2=O)CC1c1cccnc1 (stereo not drawn) [d.98, 4-(3-(6-chloro-2-oxo-4-phenyl-1,2-dihydroquinolin-3-yl)-5-(pyridin-3-yl)-4,5-dihydro-1H-pyrazol-1-yl)-4-oxobutanoic acid] | 75 | 144 |  |  | 22 | 
